The source of these data is ChEMBL document CHEMBL1131296 (J Med Chem, 1998).

In assay [1] the target is T1, Alpha-1A adrenergic receptor (Rattus norvegicus, UniProt P43140).
T1 sequence (P43140 whole entry): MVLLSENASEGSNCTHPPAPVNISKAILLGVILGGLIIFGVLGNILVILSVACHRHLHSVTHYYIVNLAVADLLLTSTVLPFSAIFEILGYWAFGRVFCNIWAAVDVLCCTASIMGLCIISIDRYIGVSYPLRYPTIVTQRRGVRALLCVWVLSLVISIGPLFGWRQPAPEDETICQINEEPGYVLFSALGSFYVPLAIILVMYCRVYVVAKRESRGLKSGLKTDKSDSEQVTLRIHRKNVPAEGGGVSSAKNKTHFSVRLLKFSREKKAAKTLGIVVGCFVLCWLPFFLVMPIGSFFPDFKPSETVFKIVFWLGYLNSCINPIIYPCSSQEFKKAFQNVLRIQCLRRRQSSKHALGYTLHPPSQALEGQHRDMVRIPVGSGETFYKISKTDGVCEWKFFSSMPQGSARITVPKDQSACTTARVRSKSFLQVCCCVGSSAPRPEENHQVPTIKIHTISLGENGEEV
The assay is described as follows: Antagonism of the norepinephrine induced contraction of rat isolated prostatic vas deferens. The assay is classed as functional. Particulars: read-out: pA2 (converted).

Assay [2] addresses T2, Alpha-1D adrenergic receptor (Rattus norvegicus, UniProt P23944).
T2 sequence (P23944 whole entry): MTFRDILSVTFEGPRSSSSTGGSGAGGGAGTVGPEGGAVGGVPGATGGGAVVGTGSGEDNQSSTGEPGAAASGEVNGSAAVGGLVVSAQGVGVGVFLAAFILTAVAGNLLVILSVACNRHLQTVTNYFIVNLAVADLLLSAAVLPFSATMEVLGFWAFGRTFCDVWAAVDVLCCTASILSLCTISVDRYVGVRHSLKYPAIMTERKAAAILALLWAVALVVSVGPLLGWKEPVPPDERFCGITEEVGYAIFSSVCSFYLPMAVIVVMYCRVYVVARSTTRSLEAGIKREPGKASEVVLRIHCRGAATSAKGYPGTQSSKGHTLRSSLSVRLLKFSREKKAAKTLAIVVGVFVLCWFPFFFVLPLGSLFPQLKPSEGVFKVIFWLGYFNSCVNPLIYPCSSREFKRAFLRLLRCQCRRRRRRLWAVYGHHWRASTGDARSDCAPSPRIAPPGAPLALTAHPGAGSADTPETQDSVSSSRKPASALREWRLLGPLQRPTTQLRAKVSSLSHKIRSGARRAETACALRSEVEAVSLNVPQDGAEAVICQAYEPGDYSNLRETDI
As to the kind of experiment: Antagonism of norepinephrine induced contraction of rat isolated thoracic aorta. The assay is classed as functional, tissue-based. The note with it: read-out: pA2 (converted).

In assay [3] the target is T3, Alpha-1B adrenergic receptor (Rattus norvegicus, UniProt P15823).
T3 sequence (P15823 whole entry): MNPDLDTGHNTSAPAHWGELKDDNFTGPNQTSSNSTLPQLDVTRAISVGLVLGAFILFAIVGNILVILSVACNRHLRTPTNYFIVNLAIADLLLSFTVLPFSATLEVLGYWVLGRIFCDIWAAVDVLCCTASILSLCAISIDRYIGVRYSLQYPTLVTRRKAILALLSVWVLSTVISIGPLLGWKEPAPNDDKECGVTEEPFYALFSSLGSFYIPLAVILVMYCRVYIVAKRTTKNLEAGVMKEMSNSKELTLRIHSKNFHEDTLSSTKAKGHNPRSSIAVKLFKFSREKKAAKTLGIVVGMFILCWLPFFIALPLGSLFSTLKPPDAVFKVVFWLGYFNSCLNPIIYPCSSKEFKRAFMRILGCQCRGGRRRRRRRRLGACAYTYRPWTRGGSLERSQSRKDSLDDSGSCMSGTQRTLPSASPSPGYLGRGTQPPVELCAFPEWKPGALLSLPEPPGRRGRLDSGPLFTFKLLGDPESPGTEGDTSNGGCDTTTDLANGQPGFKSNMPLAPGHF
The assay is described as follows: Antagonism of phenylephrine stimulated contraction of the rat isolated spleen. The assay is classed as functional, tissue-based. Particulars: read-out: pA2 (converted).

Assay [4] has as its target T4, Adrenergic receptor alpha-2 (Rattus norvegicus, UniProt P22086+P19328+P22909).
T4 sequence (P22086 whole entry): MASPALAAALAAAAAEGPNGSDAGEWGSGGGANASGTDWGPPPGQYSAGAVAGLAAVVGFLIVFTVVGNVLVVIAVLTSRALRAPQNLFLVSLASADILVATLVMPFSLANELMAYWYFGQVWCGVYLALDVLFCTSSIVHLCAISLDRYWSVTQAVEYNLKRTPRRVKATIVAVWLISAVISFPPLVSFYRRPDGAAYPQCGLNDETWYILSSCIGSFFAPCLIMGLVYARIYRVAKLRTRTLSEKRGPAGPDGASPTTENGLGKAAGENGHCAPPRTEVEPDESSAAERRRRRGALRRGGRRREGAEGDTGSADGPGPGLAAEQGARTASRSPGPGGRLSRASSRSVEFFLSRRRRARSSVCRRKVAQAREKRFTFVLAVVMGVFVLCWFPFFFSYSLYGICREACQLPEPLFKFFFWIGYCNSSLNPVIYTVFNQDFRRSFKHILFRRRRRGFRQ
T4 sequence (P19328 whole entry): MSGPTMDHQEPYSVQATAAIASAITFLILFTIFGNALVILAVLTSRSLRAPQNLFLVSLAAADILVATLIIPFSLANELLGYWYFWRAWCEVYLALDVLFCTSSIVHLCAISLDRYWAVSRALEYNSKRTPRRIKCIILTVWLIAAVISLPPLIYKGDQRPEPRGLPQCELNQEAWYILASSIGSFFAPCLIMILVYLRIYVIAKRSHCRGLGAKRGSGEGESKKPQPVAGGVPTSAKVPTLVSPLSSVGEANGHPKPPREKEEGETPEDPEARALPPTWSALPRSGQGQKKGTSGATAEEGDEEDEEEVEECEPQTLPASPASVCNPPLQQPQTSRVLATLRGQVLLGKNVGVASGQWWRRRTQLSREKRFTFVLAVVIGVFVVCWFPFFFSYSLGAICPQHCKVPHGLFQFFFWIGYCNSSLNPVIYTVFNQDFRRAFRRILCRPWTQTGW
T4 sequence (P22909 whole entry): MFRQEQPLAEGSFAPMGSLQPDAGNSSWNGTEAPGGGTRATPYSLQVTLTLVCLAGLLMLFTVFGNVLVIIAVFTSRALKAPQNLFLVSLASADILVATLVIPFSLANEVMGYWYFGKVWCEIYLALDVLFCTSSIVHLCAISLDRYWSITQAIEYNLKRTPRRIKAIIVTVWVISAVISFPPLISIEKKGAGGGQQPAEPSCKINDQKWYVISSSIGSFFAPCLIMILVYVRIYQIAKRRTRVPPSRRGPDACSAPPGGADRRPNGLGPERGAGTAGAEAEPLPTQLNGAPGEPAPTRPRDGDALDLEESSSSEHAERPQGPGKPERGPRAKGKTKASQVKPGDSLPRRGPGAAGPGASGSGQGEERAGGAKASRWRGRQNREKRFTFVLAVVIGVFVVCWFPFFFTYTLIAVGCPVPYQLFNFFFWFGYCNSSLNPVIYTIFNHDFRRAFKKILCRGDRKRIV
As to the kind of experiment: Antagonism of the clonidine-induced depression of twitch responses of rat isolated prostatic vas deferens.

The target in assay [5] is T5, Alpha-1B adrenergic receptor (Homo sapiens, UniProt P35368).
T5 sequence (P35368 whole entry): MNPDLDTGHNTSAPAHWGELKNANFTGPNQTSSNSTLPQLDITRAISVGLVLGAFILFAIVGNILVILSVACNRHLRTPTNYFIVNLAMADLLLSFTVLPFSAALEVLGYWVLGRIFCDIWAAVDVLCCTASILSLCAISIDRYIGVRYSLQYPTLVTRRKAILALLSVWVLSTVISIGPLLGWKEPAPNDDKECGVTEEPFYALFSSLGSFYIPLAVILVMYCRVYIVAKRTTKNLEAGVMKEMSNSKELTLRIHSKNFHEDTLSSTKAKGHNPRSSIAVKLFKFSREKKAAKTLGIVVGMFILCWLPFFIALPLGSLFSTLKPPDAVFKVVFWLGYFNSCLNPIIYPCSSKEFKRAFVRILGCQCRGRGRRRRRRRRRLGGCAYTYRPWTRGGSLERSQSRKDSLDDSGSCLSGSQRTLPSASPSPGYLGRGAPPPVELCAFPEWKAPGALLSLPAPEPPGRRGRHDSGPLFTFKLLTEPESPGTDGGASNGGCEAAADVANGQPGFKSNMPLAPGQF
The assay is described as follows: Binding affinity at human cloned Alpha-1B adrenergic receptor in chinese hamster ovary cells by [3H]prazosin displacement. The format is cell-based, CHO.

For the molecule `COc1cc2nc(N(C)CCCCCCN(C)C(=O)c3ccc(CN4CCSC4)cc3)nc(N)c2cc1OC`, the Kb was 58.9 nM in assay [1], 6.76 nM in assay [2] and 9.77 nM in assay [3]. The pA2 (usually a measure of antagonist potency on a negative log scale) in assay [4] was less than 5.

`COc1cc2nc(N(C)CCCCCCN(C)C(=O)c3ccccc3)nc(N)c2cc1OC`: the Kb in assay [1] was 38 nM; in assay [2] it was 6.92 nM; in assay [3], 0.447 nM. For the same molecule, the pA2 in assay [4] is recorded as 6.52.

On to `CNCCCCCCN(C)Cc1ccc(C(=O)N(C)CCCCCCN(C)c2nc(N)c3cc(OC)c(OC)cc3n2)cc1`, for which the Kb in assay [1] is 191 nM; in assay [2], 3.47 nM; in assay [3], 0.617 nM. Moreover, the pA2 in assay [4] is reported as 5.6.

For the molecule `COc1cc2nc(N(C)CCCCCCN(C)C(=O)c3ccc(CCl)o3)nc(N)c2cc1OC`, the Kb in assay [1] was 6.76 nM; in assay [2] it was 0.407 nM; in assay [3], 1.07 nM. In assay [4], this molecule returned a pA2 of less than 5.

As for `CNCCCCCCN(C)Cc1cccc(C(=O)N(C)CCCCCCN(C)c2nc(N)c3cc(OC)c(OC)cc3n2)c1`, the values for the Kb in assay [1], in assay [2] and in assay [3] were 8.91 nM, 14.5 nM and 19.5 nM, respectively. This molecule also returned a pA2 in assay [4] of less than 5.

Turning to `COc1cc2nc(N(C)CCCCCCN(C)C(=O)c3ccc(CCl)cc3)nc(N)c2cc1OC`, the figures for the Kb in assay [1], in assay [2] and in assay [3] were 77.6 nM, 19.5 nM and 0.708 nM, respectively. The pA2 in assay [4] was 5.54.

For `COc1cc2nc(N(C)CCCCCCN(C)C(=O)c3ccc(CN(C)C)o3)nc(N)c2cc1OC`, the Kb in assay [1] was 38.9 nM; in assay [2], 5.89 nM; in assay [3] it was 2.4 nM. In assay [4], this molecule showed a pA2 of less than 5.

For `COc1cc2nc(N(C)CCCCCCN(C)C(=O)c3ccccc3CNCCCCCCN)nc(N)c2cc1OC`, the figures for the Kb in assay [1], in assay [2] and in assay [3] were 10.7 nM, 3.16 nM and 0.676 nM, respectively. This molecule also showed a pA2 in assay [4] of 5.47.

On to `COc1cc2nc(N(C)CCCCCCN(C)C(=O)c3ccccc3CCl)nc(N)c2cc1OC`, for which the Kb in assay [1] was 417 nM; in assay [2], 2.82 nM; in assay [3] it was 1.86 nM. The same molecule had a pA2 in assay [4] of 5.31.

With `COc1cc2nc(N(C)CCCCCCN(C)C(=O)c3cccc(CN)c3)nc(N)c2cc1OC`, the Kb was 47.9 nM in assay [1], 2.04 nM in assay [2] and 2.45 nM in assay [3]. In assay [4], this molecule displayed a pA2 of 5.44.

Turning to `COc1cc2nc(N(C)CCSSCCN(C)C(=O)c3ccc(CN(C)C)o3)nc(N)c2cc1OC`, the Kb is 200 nM in assay [1], 6.03 nM in assay [2] and 53.7 nM in assay [3]. Further, the pA2 in assay [4] is less than 5.

Consider `COc1cc2nc(N(C)CCCCCCN(C)C(=O)c3ccc(CN(C)C)cc3)nc(N)c2cc1OC`, for which the Kb in assay [1] is 72.4 nM; in assay [2], 13.8 nM; in assay [3], 2.95 nM. Besides, the pA2 in assay [4] is on record as 5.12.

`COc1cc2nc(N(C)CCSSCCN(C)C(=O)c3ccc(CCl)o3)nc(N)c2cc1OC`: the values for the Kb in assay [1], in assay [2] and in assay [3] were 16.6 nM, 9.33 nM and 42.7 nM, respectively. Moreover, in assay [4], the pA2 was less than 5.

Take `COc1cc2nc(N(C)CCCCCCN(C)C(=O)c3ccccc3CN(C)C)nc(N)c2cc1OC`: the values for the Kb in assay [1], in assay [2] and in assay [3] were 91.2 nM, 5.5 nM and 13.2 nM, respectively. In assay [4], this molecule came in with a pA2 of less than 5.

In the case of `COc1ccccc1N1CCN(CCN2C(=O)CC3(CCCC3)CC2=O)CC1` [BMY-7378], the Ki (in general, the equilibrium dissociation constant of an inhibitor or competing ligand from its target) in assay [5] is 64.6 nM. For the same molecule, in assay [4], the pA2 is reported as less than 5.

With `COc1cc2nc(N(C)CCCCCCN(C)C(=O)c3cccc(CN4CCSC4)c3)nc(N)c2cc1OC`, the Kb in assay [1] was 15.1 nM; in assay [2], 3.09 nM; in assay [3] it was 9.33 nM. The pA2 in assay [4] is given as 5.94.

As for `COc1cc2nc(N(C)CCCCCCN(C)C(=O)c3cccc(CCl)c3)nc(N)c2cc1OC`, the Kb is 79.4 nM in assay [1], 51.3 nM in assay [2] and 66.1 nM in assay [3]. Also, in assay [4], the pA2 is on record as less than 5.
